Test results as given in US12600709B2, “Nonpeptide somatostatin type 5 receptor agonists and uses thereof” (Crinetics Pharmaceuticals, Inc., priority 2019, dated 2026).
Like-named read-outs stand apart in the source and are kept apart here.

Assays:
[1] = target: T1, human somatostatin receptor subtype 5 (Homo sapiens, UniProt P35346); assay: cAMP assay for SST5R (inhibition of cAMP in CHO-K1 cells); assay type: cell-based; conditions: for EC50: inhibition of cAMP via human SST5 receptor, read-out: SST5 potency; for Fold selectivity for SST5 vs SST2: class symbols, SST5 receptor over SST2 receptor
T1 construct: expressed in transfected cells
How it was run: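 CHO-K1 cells stably expressing human SSTR5 were treated 20 min at 37 °C with compounds plus 1.6 μM NKH477 in HBSS, 0.5 mM HEPES pH 7.4, 0.1% BSA, 0.2 mM IBMX. Lysate cAMP measured by HTRF against a standard curve; EC50 from cAMP-versus-concentration plots.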

[2] = target: T2, human somatostatin receptor subtype 2 (Homo sapiens, UniProt P30874); assay: cAMP assay for SST2R (inhibition of cAMP in CHO-K1 cells); assay type: cell-based; conditions: Table B; inhibition of cAMP via human SST2 receptor; read-out: SST2 potency
T2 construct: expressed in transfected cells
Description: General overview: All five SSTR subtypes are Gi coupled G-protein coupled receptors (GPCRs) that lead to decreases in intracellular cyclic AMP (cAMP) when activated by an agonist. Therefore, measurement of intracellular cAMP levels can be used to assess whether compounds of the invention are agonists of SSTR subtypes (John Kelly, Troy Stevens, W. Joseph Thompson, and Roland Seifert, Current Protocols in Pharmacology, 2005, 2.2.1-2.2). One example of an intracellular cAMP assay is described below.
cAMP Assay Protocol for SST2R:
Four days prior to the assay, 5,000 Chinese hamster ovary cells (CHO-K1, ATCC #CCL-61) stably expressing the human somatostatin receptor subtype 2 are plated in each well of a 96-well tissue culture-treated plate in Ham's F12 growth media (ThermoFisher #10-080-CM) supplemented with 10% donor bovine serum (Gemini Bio-Products #100-506), 100 U/mL penicillin; 100 μg/mL streptomycin; 2 mM L-glutamine (Gemini Bio-Products #400-110) and 0.2 mg/mL hygromycin B (GoldBio #31282-04-9). The cells are cultured at 37° C., 5% CO2 and 95% humidity. On the day of the assay, the media is aspirated and the cells are treated with 50 μL of 1.6 μM NKH477 (Sigma #N3290) plus various dilutions of compounds of the invention in assay buffer [1× Hank's Balanced Salt Solution (ThermoFisher #SH3058802), 0.5 mM HEPES pH 7.4, 0.1% bovine serum albumin, 0.2 mM 3-Isobutyl-1-methylxanthine (IBMX, VWR #200002-790)]. The cells are incubated for 20 minutes at 37° C. […] The cells are treated with 50 μL of lysis buffer (HRTF cAMP kit, Cisbio). The lysate is transferred to 384-well plates and cAMP detection and visualization antibodies are added and incubated for 1-24 hours at room temperature. The time-resolved fluorescent signal is read with a Tecan M1000Pro multiplate reader. The intracellular cAMP concentrations are calculated by regression to a standard curve and are plotted vs. the concentration of the compounds of the invention and the EC50 of the compounds are calculated using standard methods. All data manipulations are in GraphPad Prism v6 or v7.

T2 sequence (P30874 whole entry): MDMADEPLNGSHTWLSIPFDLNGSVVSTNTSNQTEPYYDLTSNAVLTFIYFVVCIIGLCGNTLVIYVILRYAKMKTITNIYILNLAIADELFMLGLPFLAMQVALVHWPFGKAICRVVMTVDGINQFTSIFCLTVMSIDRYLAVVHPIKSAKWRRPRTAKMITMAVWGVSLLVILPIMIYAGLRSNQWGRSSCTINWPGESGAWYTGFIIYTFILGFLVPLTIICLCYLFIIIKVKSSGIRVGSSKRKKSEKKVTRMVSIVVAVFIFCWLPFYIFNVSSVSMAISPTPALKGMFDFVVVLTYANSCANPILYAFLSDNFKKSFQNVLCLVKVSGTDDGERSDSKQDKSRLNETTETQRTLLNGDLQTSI
T1 sequence (P35346 whole entry): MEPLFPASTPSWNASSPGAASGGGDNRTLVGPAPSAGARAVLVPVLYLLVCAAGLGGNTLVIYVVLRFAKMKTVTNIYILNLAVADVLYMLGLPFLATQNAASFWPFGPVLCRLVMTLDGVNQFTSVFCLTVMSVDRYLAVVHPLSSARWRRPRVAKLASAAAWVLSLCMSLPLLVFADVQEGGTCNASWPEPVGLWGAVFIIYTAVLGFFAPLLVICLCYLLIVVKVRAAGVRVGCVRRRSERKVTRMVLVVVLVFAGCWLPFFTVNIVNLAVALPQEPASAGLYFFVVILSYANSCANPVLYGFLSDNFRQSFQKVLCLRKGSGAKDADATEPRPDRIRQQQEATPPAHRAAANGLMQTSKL

Structure (SMILES)	EC50 ([1]; Table A)	Fold selectivity for SST5 vs SST2 ([1]; Table B)	EC50 ([1]; Table B)	EC50 [2]
C[C@]1(N)CCN(c2c(C(=O)NC3CCCCCC3)ccnc2-c2cc(F)cc(F)c2)C1 [3-6, 3-[(3S)-3-amino-3-methylpyrrolidin-1-yl]-N-cycloheptyl-2-(3,5-difluorophenyl)pyridine-4-carboxamide]	< 10 nM	+++ (+++=>500)	< 10 nM	> 1000 nM
N#Cc1ncc(C(=O)NC2CCC(F)(F)CC2)c(N2CC[C@H](N)C2)c1-c1cc(F)cc(F)c1 [1-67, 4-[(3S)-3-aminopyrrolidin-1-yl]-6-cyano-N-(4,4-difluorocyclohexyl)-5-(3,5-difluorophenyl)pyridine-3-carboxamide]	< 10 nM	+++ (+++=>500)	< 10 nM	> 1000 nM
C[C@@H](NC(=O)c1cncc(-c2cc(F)cc(F)c2)c1N1CC[C@](C)(N)C1)C1CC1 [1-44, 4-[(3S)-3-amino-3-methylpyrrolidin-1-yl]-N-[(1R)-1-cyclopropylethyl]-5-(3,5-difluorophenyl)pyridine-3-carboxamide]	< 10 nM	++ (++=100 to 499)	< 10 nM	100 to 1000 nM
N#Cc1ncc(C(=O)NC23CC(C2)C3)c(N2CC[C@H](N)C2)c1-c1cc(F)cc(F)c1 [1-64, 4-[(3S)-3-aminopyrrolidin-1-yl]-N-{bicyclo[1.1.1]pentan-1-yl}-6-cyano-5-(3,5-difluorophenyl)pyridine-3-carboxamide]	< 10 nM	+++ (+++=>500)	< 10 nM	> 1000 nM
CCC(CC)NC(=O)c1cnc(C#N)c(-c2cc(F)cc(F)c2)c1N1CC[C@](C)(N)C1 [1-76, 4-[(3S)-3-amino-3-methylpyrrolidin-1-yl]-6-cyano-5-(3,5-difluorophenyl)-N-(pentan-3-yl)pyridine-3-carboxamide]	< 10 nM	+++ (+++=>500)	< 10 nM	> 1000 nM
C[C@]1(N)CCN(c2c(C(=O)NC3CCCC3)cnc(C#N)c2-c2ccnc(C(F)(F)F)c2)C1 [1-248, 4-[(3S)-3-amino-3-methylpyrrolidin-1-yl]-2-cyano-N-cyclopentyl-2′-(trifluoromethyl)-[3,4′-bipyridine]-5-carboxamide]	< 10 nM	+++ (+++=>500)	< 10 nM	> 1000 nM
Cc1cccc2[nH]c(-c3cncc(C(=O)N[C@@H](C)C(F)(F)F)c3N3CC[C@](C)(N)C3)nc12 [2-11, 4-[(3S)-3-amino-3-methylpyrrolidin-1-yl]-5-(4-methyl-1H-1,3-benzodiazol-2-yl)-N-[(2S)-1,1,1-trifluoropropan-2-yl]pyridine-3-carboxamide]	< 10 nM	+ (+=10 to 99)	< 10 nM	10 to 100 nM
C[C@]1(N)CCN(c2c(C(=O)NC3CCC(F)(F)CC3)cncc2-c2cc(F)cc(F)c2)C1 [1-16, 4-[(3S)-3-amino-3-methylpyrrolidin-1-yl]-N-(4,4-difluorocyclohexyl)-5-(3,5-difluorophenyl)pyridine-3-carboxamide]	< 10 nM	+++ (+++=>500)	< 10 nM	100 to 1000 nM
N[C@H]1CCN(c2c(C(=O)NC3CCCCC3)cnc(C(F)(F)F)c2-c2cc(F)cc(F)c2)C1 [1-213, 4-[(3S)-3-aminopyrrolidin-1-yl]-N-cyclohexyl-5-(3,5-difluorophenyl)-6-(trifluoromethyl)pyridine-3-carboxamide]	< 10 nM	+++ (+++=>500)	< 10 nM	100 to 1000 nM
C[C@H](NC(=O)c1cnc(C#N)c(-c2cc(F)cc(F)c2)c1N1C[C@@H](N)[C@H](F)C1)C1CC1 [1-135, 4-[(3R,4R)-3-amino-4-fluoropyrrolidin-1-yl]-6-cyano-N-[(1S)-1-cyclopropylethyl]-5-(3,5-difluorophenyl)pyridine-3-carboxamide]	< 10 nM	+++ (+++=>500)	< 10 nM	100 to 1000 nM
C[C@H](NC(=O)c1cnc(OCC(=O)O)c(-c2cc(F)cc(F)c2)c1N1CC[C@](C)(N)C1)C1CC1 [1-247, 2-({4-[(3S)-3-amino-3-methylpyrrolidin-1-yl]-5-{[(1S)-1-cyclopropylethyl]carbamoyl}-3-(3,5-difluorophenyl)pyridin-2-yl}oxy)acetic acid]	< 10 nM	+++ (+++=>500)	< 10 nM	> 1000 nM
COc1ncc(C(=O)NC23CC(F)(C2)C3)c(N2CC[C@](C)(N)C2)c1-c1cc(F)cc(F)c1 [1-273, 4-[(3S)-3-amino-3-methylpyrrolidin-1-yl]-5-(3,5-difluorophenyl)-N-{3-fluorobicyclo[1.1.1]pentan-1-yl}-6-methoxypyridine-3-carboxamide]	< 10 nM	+++ (+++=>500)	< 10 nM	100 to 1000 nM
Cc1ncc(C(=O)N[C@@H](C)C(F)(F)F)c(N2CC[C@H](N)C2)c1-c1cc(F)cc(Cl)c1 [1-276, 4-[(3S)-3-aminopyrrolidin-1-yl]-5-(3-chloro-5-fluorophenyl)-6-methyl-N-[(2S)-1,1,1-trifluoropropan-2-yl]pyridine-3-carboxamide]	< 10 nM	++ (++=100 to 499)	< 10 nM	100 to 1000 nM
N#Cc1ncc(C(=O)NC23CC(C2)C3)c(N2C[C@@H](N)[C@H](F)C2)c1-c1cc(F)cc(F)c1 [1-101, 4-[(3R,4R)-3-amino-4-fluoropyrrolidin-1-yl]-N-{bicyclo[1.1.1]pentan-1-yl}-6-cyano-5-(3,5-difluorophenyl)pyridine-3-carboxamide]	< 10 nM	+++ (+++=>500)	< 10 nM	> 1000 nM
COc1ncc(C(=O)N2CCC(F)(F)CC2)c(N2CC[C@H](N)C2)c1-c1cc(F)cc(F)c1 [1-236, (3S)-1-[3-(3,5-difluorophenyl)-5-(4,4-difluoropiperidine-1-carbonyl)-2-methoxypyridin-4-yl]pyrrolidin-3-amine]	> 1000 nM			
C[C@H](NC(=O)c1cncc(-c2cc(F)cc(OC(F)F)c2)c1N1CC[C@](C)(N)C1)C1CC1 [1-143, 4-[(3S)-3-amino-3-methylpyrrolidin-1-yl]-N-[(1S)-1-cyclopropylethyl]-5-[3-(difluoromethoxy)-5-fluorophenyl]pyridine-3-carboxamide]	< 10 nM			
CC(C)C(NC(=O)c1cncc(-c2cc(F)cc(F)c2)c1N1CC[C@](C)(N)C1)C(C)C [1-39, 4-[(3S)-3-amino-3-methylpyrrolidin-1-yl]-5-(3,5-difluorophenyl)-N-(2,4-dimethylpentan-3-yl)pyridine-3-carboxamide]	100 to 1000 nM			
Cc1cccc2[nH]c(-c3cncc(C(=O)N4CCC(C(F)(F)F)C4)c3N3CC[C@](C)(N)C3)nc12 (stereo partly drawn) [2-44, (3S)-3-methyl-1-[3-(4-methyl-1H-1,3-benzodiazol-2-yl)-5-[3-(trifluoromethyl)pyrrolidine-1-carbonyl]pyridin-4-yl]pyrrolidin-3-amine]	10 to 100 nM			
CC(NC(=O)c1cnc(C#N)c(-c2cc(F)cc(F)c2)c1N1CCC(N)C1)C(F)(F)F (stereo not shown) [1-225, 4-(3-aminopyrrolidin-1-yl)-6-cyano-5-(3,5-difluorophenyl)-N-(1,1,1-trifluoropropan-2-yl)pyridine-3-carboxamide]	< 10 nM			
